Test results reported in article PMC8891108, “Development and characterization of anti-fibrotic natural compound similars with improved effectivity” (Basic Research in Cardiology, 2022).

What was measured:
Assay type in all cases: cell-based
[1] = system: human cardiac fibroblasts (HCF); test: miRNA mimic / inhibitor transfection before compound treatment, WST-1 readout
Description: (§1) A mix of forward and reverse primer pairs (10 µM, Eurofins) or 10 × Quantitect Primer Assay (Qiagen, #249900) was used for mRNA. To measure miRNA, RNA was reverse-transcribed using the miRNA TaqMan MicroRNA Reverse Transcription Kit (Applied Biosystems, #4366597) with specific miRNA RT primers (ThermoFisher, #4427975). cDNA was diluted 1:3 with dH2O before qPCR with Absolute Blue qPCR Mix (Abgene, #AB-4136/B) and the specific Taqman probes (ThermoFisher, #4427975). Runs were performed in ViiA7 (Applied Biosystems) or QuantStudio 7 Flex (Applied Biosystems). Real-time qPCR data were analysed as described elsewhere.
To determine whether these miRNAs are part of and essential to the mechanism of action of the compounds, we transfected HCF with miR mimics or inhibitors of the miRNA candidates prior to compound treatment. If a miRNA is essential for the compounds’ mechanism, we would expect the absence of anti-proliferative effects after inhibition of this miRNA, whereas anti-proliferative effects would remain if the miRNA is rather a downstream element of the compound response.

[2] = system: human cardiac fibroblasts (HCF); test: nCounter Fibrosis Panel mRNA profiling of HCF; details: 24 h treatment
Description: Briefly, 100 ng/5µL isolated total RNA of HCF after 24 h treatment (RIN > 7.5 and […] > 88%) was mixed with the hybridization Master Mix and incubated at 65 °C for 20 h before loading on a nCounter® FLEX (Department of Pathology, Hannover Medical School, Germany). All run files (.RCC) were compiled into a single experiment using the nSolver analysis software. […] Reference genes for normalization were determined by nSolver using all samples (ACAD9, ARMH3, CNOT10, GUSB, MTMR14, NOL7, NUBP1, PGK1, PPIA, RPLP0, see supplemental Fig. 4e, f). We then used the Advanced analysis plugin (v2.0.115) including LOT as confounder variable and BY adjusted p value < 0.05 for identification of central deregulated pathways. Additionally, normalized counts were further analysed with GraphPad Prism using multiple unpaired t tests with FDR ≤ 5% after BKY adjustment and log2 |FC| ≥ 1.

[3] = system: human cardiac fibroblasts (HCF); test: TaqMan Array Human MicroRNA Cards, miRNA deregulation in HCF
Description: PCR amplification of array cards was performed as instructed. After quality control of all real-time qPCRs, cT values were exported and all runs were merged into a single excel file. Recommended baseline correction using relative thresholds to correct for varying reconstitution rates of different Taqman probes was not performed. Low-expressed miRNAs with cT > 32 in more than 1 replicate per treatment were excluded from analysis, before samples were normalized to column mean. Multiple unpaired t tests were performed using GraphPad Prism, deregulations were accepted as discoveries if FDR ≤ 1% (using BKY adjustment). As miRNA identifiers were based on miRbase v14, we converted them to the latest v22 for further analysis using miRBaseConverter. 747 sequences could be converted correctly, while the remaining miRNAs were removed from miRbase due to incorrect annotation (e.g. the sequences of hsa-miR-886-3p and hsa-miR-886-5p are part of VTRNA2-1 [44]) or no evidence of human expression.

[4] = system: human cardiac fibroblasts (HCF); test: BrdU incorporation, HCF proliferation (first screen); details: for EC50: Homo sapiens, Cardiac fibroblast, HCF, 24 h treatment, read-out: Effective conc. (BrdU), EC50 by BrdU assay
Description: 96-well plates (TPP) were coated with 0.1% gelatine and seeded with 7500 HCFs/well. After 72 h, medium was exchanged with serial dilutions of compounds in FGM-3 + 1.6% DMSO + 1% 5-bromo-2′-deoxyuridine (BrdU, Roche, #11647229001), prepared in additional plates. After 24 h, cells were washed twice with DPBS (Gibco, #14190144) before incubation with anti-BrdU:POD (Roche, #11647229001) for 60 min (RT). Readout was performed by measurement of absorbance at 370 nm + 490 nm in a Synergy HT (BioTek) microplate reader. […] As validation, HCF were seeded as before, but treated with serial dilutions of compounds after 24 h. […] After 60 min of incubation (37 °C, in the dark), absorbance at 450 nm + 630 nm was measured maintaining 37 °C and analysed as described before.
To assess screening quality, quality acceptance criteria Z′ (Z prime), SW (signal window), S:B (signal-to-background), S:N (signal-to-noise) were determined following. Average Z′ ≥ 0.5 and SW ≥ 2 were required to accept the screening overall, whereas single plates were rejected from analysis if Z′ < 0.3 or SW < 1.

[5] = system: human cardiac fibroblasts (HCF); test: Global RNA sequencing of treated HCF
Excerpt: The NEBNext Ultra II Directional RNA Kit was used to prepare the samples (the same as for the nCounter® Fibrosis Panel, see above) for subsequent deep sequencing on a NovaSeq PE50 (Illumina) at HZI Braunschweig (Germany). Reads were trimmed and mapped to the human genome hg38.79 using RNA STAR (v2.4.2a, [11]) by HZI Braunschweig. RAW read counts were further analysed on Galaxy (v3.38.3, usegalaxy.org, [2]) using the limma-voom method. Low-expressed transcripts without more than 0.25 CPM (counts per million reads mapped) in at least 3 samples (42,079 of 61,043) were filtered out, and TMM (trimmed mean of M values) was the method used to normalise library sizes. Changes in transcript expression were considered significant if FDR [4] ≤ 0.05 and log2 |FC| ≥ 1.3.

[6] = system: human cardiac fibroblasts (HCF); test: In vitro migration (scratch) assay of HCF; details: 10 × EC50
Description: To assess migrative capabilities of HCF, cells were stained with 1:1000 1,1′-Dioctadecyl-3,3,3′,3′-Tetramethylindotricarbocyanine Iodide (DIR′) dye in FGM-3 for 20 min at 37 °C. Cells were washed with DPBS and seeded into 0.1% gelatine-coated 96-well plates at 30,000 cells per well. […] After 17 h and 24 h, plates were imaged again. Rate of migration was determined using the migrative index (MI).

[7] = system: human living myocardial slices; test: Ex vivo human living myocardial slices, qPCR gene expression; details: 48 h
Excerpt: Myocardial slices were generated from human left ventricular heart specimens taken from failing hearts at the time of transplantation. Tissue was obtained from the Clinic for Cardiac, Thoracic, Transplant and Vascular Surgery at the Hannover Medical School (MHH), Hannover, Germany. Patients provided informed consent to the scientific use of the explanted tissue.
The preparation and culture of myocardial slices has been described before. Briefly, human heart specimens were sliced into 300 µm thick slices using a vibrating microtome (Campden Instruments, #7000smz-2) while in ice-cold 30 mM 2,3-butanedione monoxime + 1 mM D-glucose + 10 mM HEPES + 6 mM KCl + 140 mM NaCl + 1 mM MgCl2 + 1.8 mM CaCl2 (cardioplegic Tyrode’s solution), before being trimmed into approx. 7 × 7 mm pieces of aligned muscle fibres.
After 48 h in culture, myocardial slices were frozen in liquid nitrogen and stored at −80 °C for further gene expression analysis.
as §1

[8] = mean of DMSO minus mean of treatment

## COC(=O)C[C@](O)(CCCC(C)(C)O)C(=O)O[C@@H]1C(OC)=C[C@]23CCCN2CCc2cc4c(cc2[C@H]13)OCO4 [lyco-s, homoharringtonine]
[1]
  anti-proliferative effect after inhibition of hsa-miR-132-3p: protected
  anti-proliferative effect after overexpression of hsa-miR-125a-5p: partially protected against the anti-proliferative effect
[2]
  deregulation of fibrosis panel genes / pathways: repressed genes related to endothelial mesenchymal transition (EMT), ECM homeostasis as well as collagen biosynthesis
[3]; cT normalized to column mean
  Mean of treatment, hsa-miR-28-3p-002446: -2.759
  Mean of treatment, hsa-miR-342-3p-002260: -3.581
[3]; [8]
  Difference / ΔCT, hsa-miR-28-3p-002446: 0.9679
  Difference / ΔCT, hsa-miR-342-3p-002260: 1.208
[4]; BrdU incorporation
  inhibitory activity on HCF proliferation: showed inhibitory activity
[4]; HCF proliferation
  EC50 fold lower than the EC50 of lycorine: over 100 fold
[4]
  EC50: 0.034 µM
[5]
  downregulation of high- to medium-expressed collagen isoforms: approx. 90%
  expression of FN1, PTN and BGN: significantly downregulated
[5]; RNA sequencing
  differentially expressed genes (DEGs) vs DMSO control: over 4000
[5]; top 20 expressed isoforms
  expression of collagen isoforms: approx. tenfold
[6]
  HCF migration: repressed migration only after several hours
[7]
  FAP expression (qPCR): significant down-regulation
  MMP2 expression (qPCR): significant down-regulation

## O[C@H]1[C@H]2c3cc4c(cc3CN3CCC(=C[C@@H]1O)[C@H]23)OCO4 [Lycorine, lycorine]
[2]
  deregulation of fibrosis panel genes / pathways: less deregulation (fold-change) compared to the other treatments
[3]; cT normalized to column mean
  Mean of treatment, hsa-miR-30e-3p-000422: -5.454
  Mean of treatment, hsa-miR-16-000391: -6.115
  Mean of treatment, hsa-miR-28-3p-002446: -2.622
  Mean of treatment, hsa-miR-29a-002112: -7.899
  Mean of treatment, hsa-miR-30a-3p-000416: -5.962
  Mean of treatment, hsa-miR-31#-002113: -6.203
  Mean of treatment, hsa-miR-31-002279: -7.455
  Mean of treatment, hsa-miR-34a#-002316: -2.58
  Mean of treatment, hsa-miR-125a-5p-002198: -3.201
  Mean of treatment, hsa-miR-132-000457: -3.872
  Mean of treatment, hsa-miR-140-3p-002234: -1.119
  Mean of treatment, hsa-miR-151-3p-002254: -5.192
  Mean of treatment, hsa-miR-155-002623: -3.701
  Mean of treatment, hsa-miR-186-002285: -4.072
  Mean of treatment, hsa-miR-191-002299: -6.639
  Mean of treatment, hsa-miR-193b-002367: -4.73
  Mean of treatment, hsa-miR-222#-002097: -3.599
  Mean of treatment, hsa-miR-222-002276: -9.167
  Mean of treatment, hsa-miR-331-000545: -4.63
  Mean of treatment, hsa-miR-339-3p-002184: -0.6811
  Mean of treatment, hsa-miR-342-3p-002260: -3.089
  Mean of treatment, hsa-miR-376a-000565: -1.759
  Mean of treatment, hsa-miR-376c-002122: -3.539
  Mean of treatment, hsa-miR-409-3p-002332: -4.891
  Mean of treatment, hsa-miR-625#-002432: -4.373
  Mean of treatment, hsa-miR-1274B-002884: -9.621
[3]; [8]
  Difference / ΔCT, hsa-miR-30e-3p-000422: 0.9633
  Difference / ΔCT, hsa-miR-16-000391: 0.8517
  Difference / ΔCT, hsa-miR-28-3p-002446: 0.8307
  Difference / ΔCT, hsa-miR-29a-002112: 0.8647
  Difference / ΔCT, hsa-miR-30a-3p-000416: 0.8856
  Difference / ΔCT, hsa-miR-31#-002113: 0.5519
  Difference / ΔCT, hsa-miR-31-002279: 0.598
  Difference / ΔCT, hsa-miR-34a#-002316: 0.8439
  Difference / ΔCT, hsa-miR-125a-5p-002198: 0.6283
  Difference / ΔCT, hsa-miR-132-000457: 1.328
  Difference / ΔCT, hsa-miR-140-3p-002234: 0.7567
  Difference / ΔCT, hsa-miR-151-3p-002254: 0.604
  Difference / ΔCT, hsa-miR-155-002623: 1.386
  Difference / ΔCT, hsa-miR-186-002285: 1.039
  Difference / ΔCT, hsa-miR-191-002299: 0.8243
  Difference / ΔCT, hsa-miR-193b-002367: 0.5576
  Difference / ΔCT, hsa-miR-222#-002097: 1.599
  Difference / ΔCT, hsa-miR-222-002276: 0.8654
  Difference / ΔCT, hsa-miR-331-000545: 0.6606
  Difference / ΔCT, hsa-miR-339-3p-002184: 0.7187
  Difference / ΔCT, hsa-miR-342-3p-002260: 0.7149
  Difference / ΔCT, hsa-miR-376a-000565: 1.019
  Difference / ΔCT, hsa-miR-376c-002122: 0.5396
  Difference / ΔCT, hsa-miR-409-3p-002332: 0.9354
  Difference / ΔCT, hsa-miR-625#-002432: 0.6889
  Difference / ΔCT, hsa-miR-1274B-002884: -0.4297
[4]
  EC50: 2.8 µM
[7]
  FAP expression (qPCR): not
  MMP2 expression (qPCR): not
